Measurements published in US12577231B2, “Androgen receptor PROTACS” (GlaxoSmithKline Intellectual Property Development Limited, priority 2023, dated 2026).
Substitutions are numbered along the chain they refer to.

Tests used:
[1] = biological target: T1, Androgen Receptor, MDA-PCa-2b (AR T878A/L702H) (Homo sapiens, UniProt P10275, L702H/T878A); experiment: Androgen Receptor Degradation-Imaging Assay, MDA-PCa-2b cell line; format: cell-based; conditions: 16 hours treatment, maximum observed degradation
T1 construct: host or cells: MDA-PCa-2b
T1 sequence (P10275 1-920 L702H/T878A): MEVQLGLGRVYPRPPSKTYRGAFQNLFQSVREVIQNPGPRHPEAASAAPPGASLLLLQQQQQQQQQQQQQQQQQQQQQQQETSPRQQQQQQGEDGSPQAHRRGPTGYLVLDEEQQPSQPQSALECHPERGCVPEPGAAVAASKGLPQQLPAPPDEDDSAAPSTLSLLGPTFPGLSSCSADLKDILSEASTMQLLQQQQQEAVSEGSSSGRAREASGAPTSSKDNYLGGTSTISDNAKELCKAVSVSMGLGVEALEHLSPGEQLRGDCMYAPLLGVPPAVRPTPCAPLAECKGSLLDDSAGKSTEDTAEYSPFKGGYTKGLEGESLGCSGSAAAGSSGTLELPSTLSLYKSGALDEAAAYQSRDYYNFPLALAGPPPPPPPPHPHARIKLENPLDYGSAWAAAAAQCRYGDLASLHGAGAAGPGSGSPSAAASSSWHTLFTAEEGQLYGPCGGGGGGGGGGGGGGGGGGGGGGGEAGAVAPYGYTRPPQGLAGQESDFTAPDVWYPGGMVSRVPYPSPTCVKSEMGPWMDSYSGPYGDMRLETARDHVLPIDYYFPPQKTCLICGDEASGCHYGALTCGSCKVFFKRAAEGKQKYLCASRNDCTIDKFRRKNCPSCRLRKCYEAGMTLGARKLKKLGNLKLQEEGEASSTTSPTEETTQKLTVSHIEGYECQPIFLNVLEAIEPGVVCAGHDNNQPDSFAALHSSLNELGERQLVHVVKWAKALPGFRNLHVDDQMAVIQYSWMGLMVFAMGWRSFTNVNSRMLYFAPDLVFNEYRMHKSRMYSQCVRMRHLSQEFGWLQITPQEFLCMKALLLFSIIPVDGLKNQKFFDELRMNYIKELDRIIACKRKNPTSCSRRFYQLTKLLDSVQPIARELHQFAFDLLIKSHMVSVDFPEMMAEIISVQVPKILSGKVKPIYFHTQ
Procedure: (§1) Degradation of Androgen Receptor (AR) protein in human prostate cancer cell lines (MDA-PCa-2b (AR T878A/L702H), LNCaP (AR T878A), VCaP (AR wild type and amplified) 22RV1 (AR H875Y) and PC3 (AR negative control)) treated with AR PROTACs was quantified using immunofluorescence. Prostate cancer cells were plated (MDA-PCa-2b, and VCaP 16,000 cells/well; LNCaP and 22RV1 32,000 cells/well, and PC3 8,000 cells/well) in an optical bottom 96-well cell culture plate and allowed to attach overnight. The prostate cancer cell lines were treated for 16 hours with a 10-point 3-fold dilution series (dose range=0.02 nM to 333 nM). PC3 is included as an AR negative control and not treated with compound. Cells are fixed and permeabilized with 4% formaldehyde, blocked with 10% goat serum in immunofluorescence (IF) buffer (130 mM NaCl, 7 mM Na2HPO4, 3.5 mM NaH2PO4, 7.7 mM NaN3, 0.1% BSA, 0.2% Triton X, 0.05% Tween 20) prior to overnight incubation with rabbit antibody specific for C terminus of AR (commercially available from RevMaB Biosciences). Following washes with IF buffer, cells were incubated with fluorescent secondary antibody (Goat anti-rabbit Alexa 647; commercially available from Invitrogen) and Hoechst nuclear stain (commercially available from Themo Scientific) prior to quantification of nuclear AR levels via Opera Phenix high-content fluorescent imager using a 40× water objective. Image analysis was performed with Harmony software.
(§2) The averaged nuclear Alexa 647 median fluorescence intensity (MFI) of PC3 cells is subtracted from the nuclear Alexa 647 MFI of PROTAC treated and DMSO control treated cells. % AR remaining is calculated for PROTAC treatments as a percent of the DMSO control (MFI PROTAC treated/MFI DMSO control treated)*100). DC50 and the Dmax values, were obtained from these normalised values fitted with a 4-parameter sigmoidal response curve (Xlfit software). The DC50 is the interpolated concentration of PROTAC corresponding to 50% of the protein being degraded, and the Dmax parameter is the maximum experimentally observed degradation.

[2] = biological target: T2, Androgen Receptor, VCaP (AR wild type and amplified) (Homo sapiens, UniProt P10275); experiment: Androgen Receptor Degradation-Imaging Assay, VCaP cell line; format: cell-based; conditions: 16 hours treatment, maximum observed degradation
T2 construct: endogenous in cells; host or cells: VCaP
T2 sequence (P10275 1-920): T1 sequence (P10275 1-920 L702H/T878A) with H702L, A878T
Procedure: as §1, §2

Dmax [1]	Dmax [2]	Structure (SMILES)
≥ 80%	≥ 80%	CC1(C)[C@H](NC(=O)c2ccc(N3CCC(CN4CCC(n5ncc6c(N7CCC(=O)NC7=O)ccnc65)CC4)CC3)c(F)c2)C(C)(C)[C@H]1Oc1ccc(C#N)c2ncccc12 [Example 40, N-((1r,3r)-3-((8-Cyanoquinolin-5-yl)oxy)-2,2,4,4-tetramethylcyclobutyl)-4-(4-((4-(4-(2,4-dioxotetrahydropyrimidin-1(2H)-yl)-1H-pyrazolo[3,4-b]pyridin-1-yl)piperidin-1-yl)methyl)piperidin-1-yl)-3-fluorobenzamide]
≥ 80%	≥ 80%	CC1(C)[C@H](NC(=O)c2ccc(N3CCC(CN4CCC(n5ccc6c(N7CCC(=O)NC7=O)cccc65)CC4)CC3)c(F)c2)C(C)(C)[C@H]1Oc1ccc(C#N)c2ncccc12 [Example 31, N-((1r,3r)-3-((8-Cyanoquinolin-5-yl)oxy)-2,2,4,4-tetramethylcyclobutyl)-4-(4-((4-(4-(2,4-dioxotetrahydropyrimidin-1(2H)-yl)-1H-indol-1-yl)piperidin-1-yl)methyl)piperidin-1-yl)-3-fluorobenzamide]
≥ 80%	≥ 80%	CC1(C)[C@H](NC(=O)c2cc(F)c(N3CCC(CN4CCC(n5ncc6c(N7CCC(=O)NC7=O)cccc65)CC4)CC3)c(F)c2)C(C)(C)[C@H]1Oc1ccc(C#N)c2ncccc12 [Example 30, N-((1r,3r)-3-((8-Cyanoquinolin-5-yl)oxy)-2,2,4,4-tetramethylcyclobutyl)-4-(4-((4-(4-(2,4-dioxotetrahydropyrimidin-1(2H)-yl)-1H-indazol-1-yl)piperidin-1-yl)methyl)piperidin-1-yl)-3,5-difluorobenzamide]
≥ 80%	≥ 80%	CC1(C)[C@H](NC(=O)c2ccc(N3CCC(CN4CCC(n5ccc6c(N7CCC(=O)NC7=O)c(F)ccc65)CC4)CC3)c(F)c2)C(C)(C)[C@H]1Oc1ccc(C#N)c2ncccc12 [Example 51, N-((1r,3r)-3-((8-Cyanoquinolin-5-yl)oxy)-2,2,4,4-tetramethylcyclobutyl)-4-(4-((4-(4-(2,4-dioxotetrahydropyrimidin-1(2H)-yl)-5-fluoro-1H-indol-1-yl)piperidin-1-yl)methyl)piperidin-1-yl)-3-fluorobenzamide]
≥ 80%	≥ 80%	COc1c(C#N)ccc(O[C@H]2C(C)(C)[C@H](NC(=O)c3ccc(N4CCC(CN5CCC(n6ncc7c(N8CCC(=O)NC8=O)cccc76)CC5)CC4)c(F)c3)C2(C)C)c1C [Example 5, N-((1r,3r)-3-(4-Cyano-3-methoxy-2-methylphenoxy)-2,2,4,4-tetramethylcyclobutyl)-4-(4-((4-(4-(2,4-dioxotetrahydropyrimidin-1(2H)-yl)-1H-indazol-1-yl)piperidin-1-yl)methyl)piperidin-1-yl)-3-fluorobenzamide]
≥ 80%	≥ 80%	CC1(C)[C@H](NC(=O)c2ccc(N3CCC(CN4CCC(n5ncc6c(N7CCC(=O)NC7=O)c(F)ccc65)CC4)CC3)c(F)c2)C(C)(C)[C@H]1Oc1ccc(C#N)c2ncccc12 [Example 50, N-((1r,3r)-3-((8-Cyanoquinolin-5-yl)oxy)-2,2,4,4-tetramethylcyclobutyl)-4-(4-((4-(4-(2,4-dioxotetrahydropyrimidin-1(2H)-yl)-5-fluoro-1H-indazol-1-yl)piperidin-1-yl)methyl)piperidin-1-yl)-3-fluorobenzamide]
≥ 80%	≥ 80%	COc1cc(O[C@H]2C(C)(C)[C@H](NC(=O)c3ccc(N4CCC(CN5CCC(n6ccc7c(N8CCC(=O)NC8=O)cccc76)CC5)CC4)cc3)C2(C)C)ccc1C#N [Example 16, N-((1r,3r)-3-(4-Cyano-3-methoxyphenoxy)-2,2,4,4-tetramethylcyclobutyl)-4-(4-((4-(4-(2,4-dioxotetrahydropyrimidin-1(2H)-yl)-1H-indol-1-yl)piperidin-1-yl)methyl)piperidin-1-yl)benzamide]
≥ 80%	≥ 80%	CC1(C)[C@H](NC(=O)c2ccc(N3CCC(CN4CCC(n5ccc6c(N7CCC(=O)NC7=O)cccc65)CC4)CC3)cc2)C(C)(C)[C@H]1Oc1ccc(C#N)c2ncccc12 [Example 43, N-((1r,3r)-3-((8-Cyanoquinolin-5-yl)oxy)-2,2,4,4-tetramethylcyclobutyl)-4-(4-((4-(4-(2,4-dioxotetrahydropyrimidin-1(2H)-yl)-1H-indol-1-yl)piperidin-1-yl)methyl)piperidin-1-yl)benzamide]
≥ 80%	≥ 80%	COc1cc(O[C@H]2C(C)(C)[C@H](NC(=O)c3ccc(N4CCC(CN5CCC(n6ncc7c(N8CCC(=O)NC8=O)nccc76)CC5)CC4)c(F)c3)C2(C)C)ccc1C#N [Example 20, N-((1r,3r)-3-(4-Cyano-3-methoxyphenoxy)-2,2,4,4-tetramethylcyclobutyl)-4-(4-((4-(4-(2,4-dioxotetrahydropyrimidin-1(2H)-yl)-1H-pyrazolo[4,3-c]pyridin-1-yl)piperidin-1-yl)methyl)piperidin-1-yl)-3-fluorobenzamide]
≥ 80%	≥ 80%	CC1(C)[C@H](NC(=O)c2ccc(N3CCC(CN4CCC(n5ncc6c(N7CCC(=O)NC7=O)cccc65)CC4)CC3)c(F)c2)C(C)(C)[C@H]1Oc1ccc(C#N)c2c1CCCO2 [Example 8, N-((1r,3r)-3-((8-Cyanochroman-5-yl)oxy)-2,2,4,4-tetramethylcyclobutyl)-4-(4-((4-(4-(2,4-dioxotetrahydropyrimidin-1(2H)-yl)-1H-indazol-1-yl)piperidin-1-yl)methyl)piperidin-1-yl)-3-fluorobenzamide]
